Earlier results on three compounds are cited in US20080008772A1, “Narcotic biphasic release compositions and methods for treatment of coughing, sneezing, rhinorrhea, and/or nasal obstruction” (Everett Laboratories, Inc., priority 2006, published 2008).

For data set [1] the following is noted: in vivo.

On to `COc1ccccc1OCC(O)CO` (centres unmarked) [Guaifenesin, 3-(2-methoxyphenoxy)-1,2 propanediol], for which the plasma half life result in data set [1] is “one”.

With `COc1ccc2c3c1O[C@H]1C(=O)CC[C@H]4[C@@H](C2)N(C)CC[C@]314.COc1ccc2c3c1O[C@H]1C(=O)CC[C@H]4[C@@H](C2)N(C)CC[C@]314.O.O.O.O.O.O=C(O)C(O)C(O)C(=O)O.O=C(O)C(O)C(O)C(=O)O` [Hydrocodone bitartrate, 4,5a-epoxy-3-methoxy-17-methylmorphinan-6-one tartrate (1:1)hydrate (2:5)], the sedative action entry (at equi-effective doses, versus codeine) was “greater than codeine”.

On to `COc1ccc2c3c1O[C@H]1C(=O)CC[C@H]4[C@@H](C2)N(C)CC[C@]314` [hydrocodone, 4,5α-epoxy-3-methoxy-17-methylmorphinan-6-one], for which the analgesic effects entry (at therapeutic antitussive doses) was “does exert analgesic effects”. Besides, the “effects on the cardiovascular system” value (therapeutic doses) is recorded as “insignificant”. Further, under “versus morphine and codeine”, the constipation effects entry is “much weaker than that of morphine and no stronger than that of codeine”.
